Source: patent US8022061B2, “N-aryl pyrazole compounds, compositions, and methods for their use” (Amgen Inc., priority 2006, dated 2011)

System: ob/ob mice
Test: Increase of circulating insulin concentrations in treated ob/ob mice
Format: in vivo
Conditions: male ob/ob mice, dose 3 mg/kg p.o., 10 minutes after dosing, relative to control group
Description: The results presented below exemplify that administration of the compounds as provided herein to an art-recognized animal model of human diabetes can lead to increased circulating insulin concentrations in the animal model.
Male ob/ob mice were weighed and bled from tail vein, and blood glucose levels were determined with a glucometer. Animals were placed into control and treatment groups having similar averages of glucose levels and body weights. In the morning of the following day, animals were dosed with vehicle (control group) or test article (5 ml/kg, p.o.). Blood samples were collected just before and 10 minutes after dosing, and the samples were assayed for insulin and glucose concentrations.
Table 1 provides exemplary data showing the increase of circulating insulin concentrations (expressed as ng/ml) in treated mice relative to control group at 10 minutes after dosing the treated mice. Concentrations of the exemplary compound tested in the mice are provided in the righthand column.

Compound | Increase in Insulin
CCCCc1c(C(=O)NC2CCCn3cncc32)cnn1-c1ncc(C)c(-c2cccs2)n1 (centres unmarked) [5-Butyl-1-[5-methyl-4-(2-thienyl)pyrimidin-2-yl]-N-(5,6,7,8-tetrahydroimidazo[1,5-a]pyridin-8-yl)-1H-pyrazole-4-carboxamide] | 1.4 ng/mL

Same assay, conditions: male ob/ob mice, dose 10 mg/kg p.o., 10 minutes after dosing, relative to control group

Compound | Increase in Insulin
CCCCc1c(C(=O)NCc2cnc3ccccn23)cnn1-c1ncc(Br)c(NC2CCC2)n1 [1-[5-Bromo-4-(cyclobutylamino)pyrimidin-2-yl]-5-butyl-N-(imidazo[1,2-a]pyridin-3-ylmethyl)-1H-pyrazole-4-carboxamide] | 7.2 ng/mL
CCCc1c(C(=O)NC2CCCc3cnccc32)cnn1-c1ncc(C)c(-c2cccs2)n1 (centres unmarked) [1-[5-Methyl-4-(2-thienyl)pyrimidin-2-yl]-5-propyl-N-(5,6,7,8-tetrahydroisoquinolin-5-yl)-1H-pyrazole-4-carboxamide] | 8.8 ng/mL
CCCCc1c(C(=O)NCCn2cncc2C(=O)O)cnn1-c1ncc(C)c(-c2cccs2)n1 [1-{2-[({5-Butyl-1-[5-methyl-4-(2-thienyl)pyrimidin-2-yl]-1H-pyrazol-4-yl}carbonyl)amino]ethyl}-1H-imidazole-5-carboxylic acid] | 6.1 ng/mL
CCOCc1c(C(=O)NC(C)c2ccncc2)cnn1-c1ncc(C)c(-c2cccs2)n1 (centres unmarked) [5-(Ethoxymethyl)-1-[5-methyl-4-(2-thienyl)pyrimidin-2-yl]-N-(1-pyridin-4-ylethyl)-1H-pyrazole-4-carboxamide] | 6.7 ng/mL
CCCCc1c(C(=O)NC(CC)c2ccncc2)cnn1-c1ncc(C)c(-c2cccs2)n1 (centres unmarked) [5-Butyl-1-[5-methyl-4-(2-thienyl)pyrimidin-2-yl]-N-(1-pyridin-4-ylpropyl)-1H-pyrazole-4-carboxamide] | 3.1 ng/mL
CCCCc1c(C(=O)Nc2cccc3ncn(C)c23)cnn1-c1ncc(C)c(-c2cccs2)n1 [5-Butyl-N-(1-methyl-1H-benzo[d]imidazol-7-yl)-1-(5-methyl-4-(thiophen-2-yl)pyrimidin-2-yl)-1H-pyrazole-4-carboxamide] | 4.3 ng/mL
CCCCc1c(C(=O)NC(CO)c2ccncc2)cnn1-c1ncc(C)c(-c2cccs2)n1 (centres unmarked) [5-Butyl-N-(2-hydroxy-1-pyridin-4-ylethyl)-1-[5-methyl-4-(2-thienyl)pyrimidin-2-yl]-1H-pyrazole-4-carboxamide] | 4.3 ng/mL
CCCCc1c(C(=O)NC2CCn3cncc32)cnn1-c1ncc(C)c(-c2cccs2)n1 (centres unmarked) [5-Butyl-N-(6,7-dihydro-5H-pyrrolo[1,2-c]imidazol-7-yl)-1-[5-methyl-4-(2-thienyl)pyrimidin-2-yl]-1H-pyrazole-4-carboxamide] | 2.2 ng/mL
CCCCc1c(C(=O)NCc2cnc3ccccn23)cnn1-c1ncc(C)c(-c2cccs2)n1 [5-Butyl-N-(imidazo[1,2-a]pyridin-3-ylmethyl)-1-[5-methyl-4-(2-thienyl)pyrimidin-2-yl]-1H-pyrazole-4-carboxamide] | 8.5 ng/mL
CCCCc1c(C(=O)NCc2c(C)ncn2CC(=O)N(C)C)cnn1-c1ncc(C)c(-c2cccs2)n1 [5-Butyl-N-({1-[2-(dimethylamino)-2-oxoethyl]-4-methyl-1H-imidazol-5-yl}methyl)-1-[5-methyl-4-(2-thienyl)pyrimidin-2-yl]-1H-pyrazole-4-carboxamide] | 4.7 ng/mL
CCCCc1c(C(=O)NCc2c(C)ncn2CC(=O)NC)cnn1-c1ncc(C)c(-c2cccs2)n1 [5-Butyl-N-({4-methyl-1-[2-(methylamino)-2-oxoethyl]-1H-imidazol-5-yl}methyl)-1-[5-methyl-4-(2-thienyl)pyrimidin-2-yl]-1H-pyrazole-4-carboxamide] | 9 ng/mL
CCCCc1c(C(=O)NC(C)c2cncn2C)cnn1-c1ncc(C)c(-c2cccs2)n1 (centres unmarked) [5-Butyl-N-[1-(1-methyl-1H-imidazol-5-yl)ethyl]-1-[5-methyl-4-(2-thienyl)pyrimidin-2-yl]-1H-pyrazole-4-carboxamide] | 6.4 ng/mL
CCCCc1c(C(=O)NCCn2ccnc2)cnn1-c1ncc(C)c(-c2cccs2)n1 [5-Butyl-N-[2-(1H-imidazol-1-yl)ethyl]-1-[5-methyl-4-(2-thienyl)pyrimidin-2-yl]-1H-pyrazole-4-carboxamide] | 2.9 ng/mL
CCCCc1c(C(=O)NC(CO)c2cncn2C)cnn1-c1ncc(C)c(-c2cccs2)n1 (centres unmarked) [5-Butyl-N-[2-hydroxy-1-(1-methyl-1H-imidazol-5-yl)ethyl]-1-[5-methyl-4-(2-thienyl)pyrimidin-2-yl]-1H-pyrazole-4-carboxamide] | 5.2 ng/mL
CCCCc1c(C(=O)NCc2c(C)ncn2CC(=O)O)cnn1-c1ncc(Br)c(NC2CCC2)n1 [(5-{[({1-[5-Bromo-4-(cyclobutylamino)pyrimidin-2-yl]-5-butyl-1H-pyrazol-4-yl}carbonyl)amino]methyl}-4-methyl-1H-imidazol-1-yl)acetic acid] | 1.7 ng/mL
CCCCc1c(C(=O)NCc2cncn2CC(=O)O)cnn1-c1ncc(C)c(-c2cccs2)n1 [(5-{[({5-Butyl-1-[5-methyl-4-(2-thienyl)pyrimidin-2-yl]-1H-pyrazol-4-yl}carbonyl)amino]methyl}-1H-imidazol-1-yl)acetic acid] | 3.8 ng/mL
CCCCc1c(C(=O)NCCn2cncc2C(=O)OC)cnn1-c1ncc(C)c(-c2cccs2)n1 [Methyl 1-{2-[({5-butyl-1-[5-methyl-4-(2-thienyl)pyrimidin-2-yl]-1H-pyrazol-4-yl}carbonyl)amino]ethyl}-1H-imidazole-5-carboxylate] | 6.6 ng/mL
CCCCc1c(C(=O)NCc2cncn2CC(=O)OC)cnn1-c1ncc(C)c(-c2cccs2)n1 [Methyl (5-{[({5-butyl-1-[5-methyl-4-(2-thienyl)pyrimidin-2-yl]-1H-pyrazol-4-yl}carbonyl)amino]methyl}-1H-imidazol-1-yl)acetate] | 4.3 ng/mL
CCCCc1c(C(=O)Nc2cccc3nc[nH]c23)cnn1-c1ncc(C)c(-c2cccs2)n1 [N-1H-Benzimidazol-7-yl-5-butyl-1-[5-methyl-4-(2-thienyl)pyrimidin-2-yl]-1H-pyrazole-4-carboxamide] | 0.9 ng/mL
COCc1c(C(=O)NCc2cnc3ccccn23)cnn1-c1ncc(C)c(-c2cccs2)n1 [N-(Imidazo[1,2-a]pyridin-3-ylmethyl)-5-(methoxymethyl)-1-[5-methyl-4-(2-thienyl)pyrimidin-2-yl]-1H-pyrazole-4-carboxamide] | 4.4 ng/mL
CCCCc1c(C(=O)N[C@@H](Cc2c[nH]cn2)C(=O)O)cnn1-c1ncc(C)c(-c2cccs2)n1 [N-({5-Butyl-1-[5-methyl-4-(2-thienyl)pyrimidin-2-yl]-1H-pyrazol-4-yl}carbonyl)-L-histidine] | 4.5 ng/mL
CCCc1c(C(=O)NCCc2cncn2C)cnn1-c1ncc(C)c(-c2cccs2)n1 [N-[2-(1-Methyl-1H-imidazol-5-yl)ethyl]-1-[5-methyl-4-(2-thienyl)pyrimidin-2-yl]-5-propyl-1H-pyrazole-4-carboxamide] | 9.5 ng/mL
CCCc1c(C(=O)NC(CO)c2cncn2C)cnn1-c1ncc(C)c(-c2cccs2)n1 (centres unmarked) [N-[2-Hydroxy-1-(1-methyl-1H-imidazol-5-yl)ethyl]-1-[5-methyl-4-(2-thienyl)pyrimidin-2-yl]-5-propyl-1H-pyrazole-4-carboxamide] | 3.1 ng/mL
CCCCc1c(C(=O)NCc2c(C)ncn2CC(N)=O)cnn1-c1ncc(C)c(-c2cccs2)n1 [N-{[1-(2-Amino-2-oxoethyl)-4-methyl-1H-imidazol-5-yl]methyl}-5-butyl-1-[5-methyl-4-(2-thienyl)pyrimidin-2-yl]-1H-pyrazole-4-carboxamide] | 4 ng/mL

Same assay, conditions: male ob/ob mice, dose 30 mg/kg p.o., 10 minutes after dosing, relative to control group

Compound | Increase in Insulin
CCCCc1c(C(=O)NCc2ccncc2)cnn1-c1ncc(C)c(-c2cccs2)n1 [5-Butyl-1-[5-methyl-4-(2-thienyl)pyrimidin-2-yl]-N-(pyridin-4-ylmethyl)-1H-pyrazole-4-carboxamide] | 4.1 ng/mL
CCCCc1c(C(=O)NC(C)(C)c2ccncc2)cnn1-c1ncc(C)c(-c2cccs2)n1 [5-Butyl-N-(1-methyl-1-pyridin-4-ylethyl)-1-[5-methyl-4-(2-thienyl)pyrimidin-2-yl]-1H-pyrazole-4-carboxamide] | 4.6 ng/mL
CCCc1c(C(=O)NCc2cncn2C)cnn1-c1ncc(C)c(-c2cccs2)n1 [N-[(1-Methyl-1H-imidazol-5-yl)methyl]-1-[5-methyl-4-(2-thienyl)pyrimidin-2-yl]-5-propyl-1H-pyrazole-4-carboxamide] | 28.5 ng/mL

System: C57B6 mice
Test: Glucose lowering effect after oral glucose challenge in C57B6 mice
Format: in vivo
Conditions: male C57B6 mice, p.o. 30 minutes before oral glucose 3 g/kg; blood glucose before, 20 and 50 minutes after challenge; relative to control group
Description: The following example describes the glucose lowering effect of compounds observed in vivo.
Male C57B6 mice were placed into control and treatment groups having similar averages of body weights. Then, animals were dosed with vehicle (control group) or test article (5 ml/kg, p.o.). Thirty minutes after dosing, glucose (3 g/kg) was orally administered in each animal. Blood samples were collected just before, 20 minutes and 50 minutes after glucose challenge and glucose concentrations in the samples was assessed. The values in Table 2 represent the observed % AUC reduction of blood glucose in the treated animals relative to the control group.

Compound | % AUC reduction in glucose levels
CCOCc1c(C(=O)NCc2c(CO)ncn2C)cnn1-c1ncc(C)c(N2CCc3ccccc3C2)n1 [1-[4-(3,4-Dihydroisoquinolin-2(1H)-yl)-5-methylpyrimidin-2-yl]-5-(ethoxymethyl)-N-{[4-(hydroxymethyl)-1-methyl-1H-imidazol-5-yl]methyl}-1H-pyrazole-4-carboxamide] | 63%
